Measurements: US20130156845A1, “LIPID FORMULATED SINGLE STRANDED RNA” (ALNYLAM PHARMACEUTICALS, INC., priority 2010, published 2013)
Where two headings read alike, the source gives them in different places. e = 2'-O-(2-methoxyethyl) (MOE); {P} = phosphate; f = 2'-fluoro

How the values were obtained:
PTEN = PTEN mRNA reduction in HeLa cells, dose response (Example 59); assay type: cell-based, human; conditions: percent inhibition of PTEN mRNA, real-time PCR normalized to RIBOGREEN, 0.20-50 nM
Protocol: When cells reached 65-75% confluency, they are treated with one or more oligomeric compounds. The oligomeric compound is mixed with LIPOFECTIN™ Invitrogen Life Technologies, Carlsbad, Calif.) in Opti-MEM™-1 reduced serum medium (Invitrogen Life Technologies, Carlsbad, Calif.) to achieve the desired concentration of the oligomeric compound(s) and a LIPOFECTIN™ concentration of 2.5 or 3 μg/mL per 100 nM oligomeric compound(s). This transfection mixture is incubated at room temperature for approximately 0.5 hours. For cells grown in 96-well plates, wells are washed once with 100 μL OPTI-MEM™-1 and then treated with 130 μL of the transfection mixture. Cells grown in 24-well plates or other standard tissue culture plates are treated similarly, using appropriate volumes of medium and oligomeric compound(s). […]
Quantitation of target mRNA levels is accomplished by real-time quantitative PCR using the ABI PRISM™ 7600, 7700, or 7900 Sequence Detection System (PE-Applied Biosystems, Foster City, Calif.) according to manufacturer's instructions. This is a closed-tube, non-gel-based, fluorescence detection system which allows high-throughput quantitation of polymerase chain reaction (PCR) products in real-time. As opposed to standard PCR in which amplification products are quantitated after the PCR is completed, products in real-time quantitative PCR are quantitated as they accumulate. […]

human PTEN = assay: PTEN expression in HeLa cells, ssRNAs vs siRNAs (Example 62); assay type: cell-based
Outline: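 HeLa cells treated with antisense strands either as single-stranded RNAs or duplexed with a common sense strand. PTEN mRNA levels normalized; IC50 from linear regression of normalized mRNA against log concentration.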

P-UfUfGfUfCfUfCfUfGfGfUfCfCfUfUfAfCfUfUfAeAe (antisense UUGUCUCUGGUCCUUACUUAA; sugars from the 5' end f19 e2, 5' {P}, backbone not given here) [ISIS 404320, modified ssRNA targeting PTEN]
EC50 (PTEN): 13.2 nM
EC50 (human PTEN; antisense strand duplexed with sense strand ISIS 341401, PTEN mRNA, read-out: EC50 (nM) siRNA): 0.5 nM
EC50 (human PTEN; single stranded antisense compound, PTEN mRNA, read-out: EC50 (nM) ssRNA): 5 nM
